Measurements: patent US5883121A, “Epoxysuccinamide derivative or salt thereof, and medicine comprising the same” (Taiho Pharmaceutical Co., Ltd., priority 1995, dated 1999)
Counter-ions that a name gives are not always drawn.

How the values were obtained:
[1] = target: T1, cathepsin B (Rattus norvegicus, UniProt P00787); test: Determination of inhibition rate against cathepsin B; format: biochemical; conditions: cathepsin B from rat liver; substrate Z-Arg-Arg-MCA; pH 5.5; 30° C; 10 minutes
T1 construct: extracted from a rat liver and completely purified; from tissue; host or cells: rat liver
Method: (§1) Determination of inhibition rate against cathepsin L, B and H […]
(§2) Each cathepsin was diluted with a diluent (0.1% Brij 35) to adjust its concentration to 0.3 U (0.1 U: a concentration at which 1.0 nmol of MCA is released per minute at 37° C.). To 500 μl of this solution, were added 250 μl of an activator/buffer (340 mM sodium acetate, 60 mM acetic acid, 4 mM disodium EDTA; pH 5.5). After the mixture was incubated for 1 minute at 30° C., the sample solution of the predetermined concentration and […] of a substrate solution were added to conduct a reaction for 10 minutes.

[2] = target: T2, cathepsin L (Rattus norvegicus, UniProt P07154); test: Determination of inhibition rate against cathepsin L; format: biochemical; conditions: for B/L: IC50 against cathepsin B divided by IC50 against cathepsin L; for IC50: cathepsin L from rat liver, substrate Z-Phe-Arg-MCA, pH 5.5, 30° C, 10 minutes
T2 construct: extracted from a rat liver and completely purified; from tissue; host or cells: rat liver
Method: as §1, §2

T1 sequence (P00787 129-333 limits assumed): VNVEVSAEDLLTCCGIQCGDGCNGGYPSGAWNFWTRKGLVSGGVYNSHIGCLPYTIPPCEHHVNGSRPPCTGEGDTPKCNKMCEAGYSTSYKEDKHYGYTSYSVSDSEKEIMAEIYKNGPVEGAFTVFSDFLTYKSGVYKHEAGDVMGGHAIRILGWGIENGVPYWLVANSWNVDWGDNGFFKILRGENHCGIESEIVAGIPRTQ
T1 sequence (P00787 80-126 limits assumed): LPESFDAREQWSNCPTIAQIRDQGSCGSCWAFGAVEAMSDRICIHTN
T2 sequence (P07154 114-288 limits assumed): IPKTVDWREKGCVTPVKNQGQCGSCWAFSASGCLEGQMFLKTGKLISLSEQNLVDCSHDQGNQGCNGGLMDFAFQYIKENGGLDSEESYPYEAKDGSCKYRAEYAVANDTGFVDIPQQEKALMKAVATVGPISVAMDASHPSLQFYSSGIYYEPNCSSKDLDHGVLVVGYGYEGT
T2 sequence (P07154 291-334 limits assumed): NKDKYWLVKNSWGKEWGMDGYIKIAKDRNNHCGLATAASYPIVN

Compound | IC50 [1] [µM] | B/L [2] | IC50 [2] [nM]
NCCCCCCCCNC(=O)[C@H](Cc1ccccc1)NC(=O)[C@H]1O[C@@H]1C(=O)O [Preparation Example 61, N-{N-[(2S,3S)-3-trans-Carboxyoxirane-2-carbonyl]-L-phenylalanyl}-1,8-diaminooctane, reference compound] | 0.023 | 28.4 | 0.81
CCCNC(=O)[C@H](Cc1ccccc1)NC(=O)[C@H]1O[C@@H]1C(=O)N[C@@H](CCCCN)C(=O)Nc1ccccc1 [Example 59, Nα-{L-3-trans-[(S)-1-propylcarbamoyl-2-phenylethylcarbamoyl]oxirane-2-carbonyl}-L-lysine anilide hydrochloride] | > 10 | > 3703 | 2.7
NCCCC[C@H](NC(=O)[C@H]1O[C@@H]1C(=O)N[C@@H](Cc1ccccc1)C(N)=O)C(=O)N(Cc1ccccc1)Cc1ccccc1 [Example 16, Nα-{L-3-trans-[(S)-1-carbamoyl-2-phenylethylcarbamoyl]oxirane-2-carbonyl}-L-lysine dibenzylamide hydrochloride] | – | – | 220
NCCCC[C@H](NC(=O)[C@H]1O[C@@H]1C(=O)NC1Cc2ccccc2C1)C(=O)NC1c2ccccc2-c2ccccc21 [Example 10, Nα-[L-3-trans-(2-indanylcarbamoyl)oxirane-2-carbonyl]-L-lysine-9-fluorenylamide hydrochloride] | – | – | 870
NCCCC[C@H](NC(=O)[C@H]1O[C@@H]1C(=O)N[C@@H](Cc1ccccc1)C(=O)NCCc1ccccc1)C(=O)Nc1ccccc1 [Example 35, Nα-{L-3-trans-[(S)-1-(2-phenylethylcarbamoyl)-2-phenylethylcarbamoyl]oxirane-2-carbonyl}-L-lysine anilide hydrochloride] | 11 | 6470 | 1.7
CN(C)C(=O)[C@H](Cc1ccccc1)NC(=O)[C@H]1O[C@@H]1C(=O)N[C@@H](CCCCN)C(=O)Nc1ccccc1 [Example 65, Nα-{L-3-trans-[(S)-1-dimethylcarbamoyl-2-phenylethylcarbamoyl]oxirane-2-carbonyl}-L-lysine anilide hydrochloride] | > 10 | > 333 | 30
NCCCC[C@H](NC(=O)[C@H]1O[C@@H]1C(=O)N[C@@H](Cc1ccccc1)C(=O)NC1CCCCC1)C(=O)Nc1ccccc1 [Example 69, Nα-{L-3-trans-[(S)-1-cyclohexylcarbamoyl-2-phenylethylcarbamoyl]oxirane-2-carbonyl}-L-lysine anilide hydrochloride] | > 10 | > 1177 | 8.5
NCCCC[C@H](NC(=O)[C@H]1O[C@@H]1C(=O)NCCc1ccccc1)C(=O)NC1c2ccccc2-c2ccccc21 [Example 6, Nα-[L-3-trans-(2-phenylethylcarbamoyl)oxirane-2-carbonyl]-L-lysine-9-fluorenylamide hydrochloride] | – | – | 960
CCCNC(=O)[C@H](Cc1ccccc1)NC(=O)[C@H]1O[C@@H]1C(=O)N[C@@H](CCCCN)C(=O)Nc1cccc2ccccc12 [Example 51, Nα-{L-3-trans-[(S)-1-propylcarbamoyl-2-phenylethylcarbamoyl]oxirane-2-carbonyl-L-lysine-1-naphthylamide hydrochloride] | 8.5 | > 85000 | < 0.1
NCCCC[C@H](NC(=O)[C@H]1O[C@@H]1C(=O)N[C@@H](Cc1ccccc1)C(N)=O)C(=O)Nc1ccccc1 [Example 55, Nα-{L-3-trans-[(S)-1-carbamoyl-2-phenylethylcarbamoyl]oxirane-2-carbonyl}-Nε-L-lysine anilide hydrochloride] | 44 | 2444 | 18
CC(C)NC(=O)[C@H](Cc1ccccc1)NC(=O)[C@H]1O[C@@H]1C(=O)N[C@@H](CCCCN)C(=O)Nc1ccccc1 [Example 61, Nα-{L-3-trans-[(S)-1-isopropylcarbamoyl-2-phenylethylcarbamoyl]oxirane-2-carbonyl}-L-lysine anilide hydrochloride] | > 10 | > 3571 | 2.8
COc1ccccc1NC(=O)[C@H](CCCCN)NC(=O)[C@H]1O[C@@H]1C(=O)N[C@@H](Cc1ccccc1)C(N)=O [Example 37, Nα-{L-3-trans-[(S)-1-carbamoyl-2-phenylethylcarbamoyl]oxirane-2-carbonyl}-L-lysine-2-methoxyanilide hydrochloride] | 25 | 3906 | 6.4
NCCCC[C@H](NC(=O)[C@H]1O[C@@H]1C(=O)N[C@@H](Cc1ccccc1)C(=O)NCCc1ccccc1)C(=O)Nc1ccc(Cl)c2ccccc12 [Example 49, Nα-{L-3-trans-[(S)-1-(2-phenylethylcarbamoyl)-2-phenylethylcarbamoyl]oxirane-2-carbonyl}-L-lysine-1-(4-chloronaphthyl)amide hydrochloride] | 2 | 1176 | 1.7
NCCCC[C@H](NC(=O)[C@H]1O[C@@H]1C(=O)N[C@@H](Cc1ccccc1)C(=O)Nc1ccccc1)C(=O)Nc1cccc2ccccc12 [Example 57, Nα-{L-3-trans-[(S)-1-phenylcarbamoyl-2-phenylethylcarbamoyl]oxirane-2-carbonyl}-L-lysine-1-naphthylamide hydrochloride] | > 10 | > 11111 | 9
CNC(=O)[C@H](Cc1ccccc1)NC(=O)[C@H]1O[C@@H]1C(=O)N[C@@H](CCCCN)C(=O)Nc1ccccc1 [Example 63, Nα-{L-3-trans-[(S)-1-methylcarbamoyl-2-phenylethylcarbamoyl]oxirane-2-carbonyl}-L-lysine anilide hydrochloride] | > 10 | 1923 | 5.2
NCCCC[C@H](NC(=O)[C@H]1O[C@@H]1C(=O)N[C@H](Cc1ccccc1)C(=O)NCCc1ccccc1)C(=O)Nc1cccc2ccccc12 [Example 53, Nα-{L-3-trans-[(R)-1-(2-phenylethylcarbamoyl)-2-phenylethylcarbamoyl]oxirane-2-carbonyl}-L-lysine-1-naphthylamide hydrochloride] | 30 | 333 | 90
NCCCC[C@H](NC(=O)[C@H]1O[C@@H]1C(=O)N[C@@H](Cc1ccccc1)C(N)=O)C(=O)Nc1ccc(Cl)c2ccccc12 [Example 48, Nα-{L-3-trans-[(S)-1-carbamoyl-2-phenylethylcarbamoyl]oxirane-2-carbonyl}-L-lysine-1-(4-chloronaphthyl)amide hydrochloride] | 3.1 | 7045 | –
COc1ccccc1NC(=O)[C@H](CCCCN)NC(=O)[C@H]1O[C@@H]1C(=O)N[C@@H](Cc1ccccc1)C(=O)NCCc1ccccc1 [Example 39, Nα-{L-3-trans-[(S)-1-(2-phenylethylcarbamoyl)-2-phenylethylcarbamoyl]oxirane-2-carbonyl}-L-lysine-2-methoxyanilide hydrochloride] | 12 | 7500 | 1.6
NCCCC[C@H](NC(=O)[C@H]1O[C@@H]1C(=O)N[C@@H](Cc1ccccc1)C(=O)NCCc1ccccc1)C(=O)N1CCc2ccccc21 [Example 47, Nα-{L-3-trans-[(S)-1-(2-phenylethylcarbamoyl)-2-phenylethylcarbamoyl]oxirane-2-carbonyl}-L-lysine indolinylamide hydrochloride] | 15 | 150000 | 0.1
NCCCC[C@H](NC(=O)[C@H]1O[C@@H]1C(=O)NC1Cc2ccccc2C1)C(=O)Nc1cccc2ccccc12 [Example 12, Nα-[L-3-trans-(2-indanylcarbamoyl)oxirane-2-carbonyl]-L-lysine-1-naphthylamide hydrochloride] | > 10 | > 250 | 40
NCCCC[C@H](NC(=O)[C@H]1O[C@@H]1C(=O)N[C@@H](Cc1ccccc1)C(=O)NCCc1ccccc1)C(=O)Nc1ccccc1C(F)(F)F [Example 43, Nα-{L-3-trans-[(S)-1-(2-phenylethylcarbamoyl)-2-phenylethylcarbamoyl]oxirane-2-carbonyl)-L-lysine-2-trifluoromethylanilide hydrochloride] | 90 | 30000 | 3
CCNC(=O)[C@H](Cc1ccccc1)NC(=O)[C@H]1O[C@@H]1C(=O)N[C@@H](CCCCN)C(=O)Nc1ccccc1 [Example 67, Nα-{L-3-trans-[(S)-1-ethylcarbamoyl-2-phenylethylcarbamoyl]oxirane-2-carbonyl)-L-lysine anilide hydrochloride] | 68 | 1570 | 36
NCCCC[C@H](NC(=O)[C@H]1O[C@@H]1C(=O)N[C@@H](Cc1ccccc1)C(N)=O)C(=O)N1CCc2ccccc21 [Example 45, Nα-{L-3-trans-[(S)-1-carbamoyl-2-phenylethylcarbamoyl]oxirane-2-carbonyl}-L-lysine indolinylamide hydrochloride] | 40 | 571 | 70
CC(=O)NCCCC[C@H](NC(=O)[C@H]1O[C@@H]1C(=O)N[C@@H](Cc1ccccc1)C(N)=O)C(=O)Nc1cccc2ccccc12 [Example 31, Nα-{L-3-trans-[(S)-1-carbamoyl-2-phenylethylcarbamoyl]oxirane-2-carbonyl)-Nε-acetyl-L-lysine-1-naphthylamide] | – | – | 7
